Consider 33 compounds from patent publication US20230416228A1 (Forkhead Biotherapeutics, Inc., priority 2020, published 2023).

For the assay, the target named is T1, human FOXO1 (constitutively active form Thr24Ala, Ser256Ala, Ser319Ala) (Homo sapiens, UniProt Q12778, S256A/S319A/T24A).
T1 construct: expressed in transfected cells; host or cells: HEK293 cells transfected with pcDNA3.1 plasmid
Put plainly: FOXO1 inhibitor activity assay: cell-based transcriptional (luciferase) reporter assay in HEK293 cells. The following applies: HEK293 cells transfected with insulin response element firefly luciferase reporter, FOXO1 and Renilla luciferase; 10-point dose response 50 μM to 2.5 nM; 24 hours. In a few lines: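 IC50 and maximal inhibition were fitted by 4-parameter logistic regression on normalized firefly/Renilla luciferase ratios. The 0% reference used RFP in place of FOXO1, and the 100% reference was DMSO-only with all plasmids.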

T1 sequence (Q12778 whole entry T24A/S256A/S319A): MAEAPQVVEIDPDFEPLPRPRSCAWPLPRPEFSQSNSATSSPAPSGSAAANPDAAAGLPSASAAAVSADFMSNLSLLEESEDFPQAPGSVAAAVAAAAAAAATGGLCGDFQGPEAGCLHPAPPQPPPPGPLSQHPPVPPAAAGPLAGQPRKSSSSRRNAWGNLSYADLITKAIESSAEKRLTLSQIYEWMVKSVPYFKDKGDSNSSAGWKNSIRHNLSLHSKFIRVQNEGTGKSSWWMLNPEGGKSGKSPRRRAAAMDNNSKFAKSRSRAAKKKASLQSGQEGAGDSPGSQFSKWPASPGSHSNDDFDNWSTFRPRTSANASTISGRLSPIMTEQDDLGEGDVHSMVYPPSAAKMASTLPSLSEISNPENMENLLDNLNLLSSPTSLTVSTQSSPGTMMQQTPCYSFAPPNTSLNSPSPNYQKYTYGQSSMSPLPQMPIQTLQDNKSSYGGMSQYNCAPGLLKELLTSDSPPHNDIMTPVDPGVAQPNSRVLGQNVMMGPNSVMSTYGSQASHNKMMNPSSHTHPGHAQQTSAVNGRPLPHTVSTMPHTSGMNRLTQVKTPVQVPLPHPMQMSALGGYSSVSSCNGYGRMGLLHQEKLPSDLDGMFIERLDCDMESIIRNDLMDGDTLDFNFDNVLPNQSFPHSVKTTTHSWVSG

For orientation: IC50 means the point on the concentration scale where inhibition reaches its midpoint. The low end stands for greater potency, the high end for weaker potency. In the case of `O=C(Nc1cc(-c2nc3cc(OC(F)(F)F)ccc3[nH]2)[nH]n1)c1ccc(N2CCC(CO)CC2)nc1` [Compound A-114, 6-[4-(hydroxymethyl)-1-piperidyl]-N-[5-[5-(trifluoromethoxy)-1H-benzimidazol-2-yl]-1H-pyrazol-3-yl]pyridine-3-carboxamide], the IC50 is greater than 1000 nM.
The same measure for `Cc1ccc2[nH]c(-c3cc(NC(=O)c4ccc(OCCO)c(Cl)c4)n[nH]3)nc2c1` [Compound A-115, 3-chloro-4-(2-hydroxyethoxy)-N-[5-(5-methyl-1H-benzimidazol-2-yl)-1H-pyrazol-3-yl]benzamide]: less than 100 nM; for `O=C(Nc1cc(-c2nc3cc(OC(F)(F)F)ccc3[nH]2)[nH]n1)c1ccc(OCCO)c(Cl)c1` [Compound A-116, 3-chloro-4-(2-hydroxyethoxy)-N-[5-[5-(trifluoromethoxy)-1H-benzimidazol-2-yl]-1H-pyrazol-3-yl]benzamide]: 100 to 300 nM; for `COc1ccc2[nH]c(-c3cc(NC(=O)c4ccc(OCCO)c(Cl)c4)n[nH]3)nc2c1` [Compound A-117, 3-chloro-4-(2-hydroxyethoxy)-N-[5-(5-methoxy-1H-benzimidazol-2-yl)-1H-pyrazol-3-yl]benzamide formic acid]: less than 100 nM.
Compound `O=C(Nc1cc(-c2nc3cc(Br)ccc3[nH]2)[nH]n1)c1ccc(OCCO)c(Cl)c1` [Compound A-118, N-[5-(5-bromo-1H-benzimidazol-2-yl)-1H-pyrazol-3-yl]-3-chloro-4-(2-hydroxyethoxy)benzamide] showed an IC50 of 300 to 1000 nM.
Compound `O=C(Nc1cc(-c2nc3cccc(F)c3[nH]2)[nH]n1)c1ccc(OCCO)c(Cl)c1` [Compound A-119, 3-chloro-N-[5-(7-fluoro-1H-benzimidazol-2-yl)-1H-pyrazol-3-yl]-4-(2-hydroxyethoxy)benzamide] displayed an IC50 of 100 to 300 nM.
As for `COc1cc(C(=O)Nc2cc(-c3nc4ccccc4[nH]3)[nH]n2)ccc1OCCO` [Compound A-120, N-[5-(1H-benzimidazol-2-yl)-1H-pyrazol-3-yl]-4-(2-hydroxyethoxy)-3-methoxy-benzamide], the IC50 lay in the range of 300 to 1000 nM.
For `O=C(Nc1cc(-c2nc3cc(Cl)ccc3[nH]2)[nH]n1)c1ccc(OCCO)c(Cl)c1` [Compound A-121, 3-chloro-N-[5-(5-chloro-1H-benzimidazol-2-yl)-1H-pyrazol-3-yl]-4-(2-hydroxyethoxy)benzamide], the IC50 lay in the range of 100 to 300 nM.
In turn, `O=C(Nc1cc(-c2nc3cc(C(F)(F)F)ccc3[nH]2)[nH]n1)c1ccc(OCCO)c(Cl)c1` [Compound A-123, 3-chloro-4-(2-hydroxyethoxy)-N-[5-[5-(trifluoromethyl)-1H-benzimidazol-2-yl]-1H-pyrazol-3-yl]benzamide formic acid] came in with an IC50 of less than 100 nM.
The same measure for `COc1ccc(C(=O)Nc2cc(-c3nc4ccccc4[nH]3)[nH]n2)cc1F` [Compound A-124, N-[5-(1H-benzimidazol-2-yl)-1H-pyrazol-3-yl]-3-fluoro-4-methoxy-benzamide]: less than 100 nM; for `COc1ccc(C(=O)Nc2cc(-c3nc4cccc(F)c4[nH]3)n(C)n2)cc1Cl` [Compound A-125, 3-chloro-N-[5-(7-fluoro-1H-benzimidazol-2-yl)-1-methyl-pyrazol-3-yl]-4-methoxy-benzamide]: 100 to 300 nM; for `COc1ccc(C(=O)Nc2cc(-c3nc4cc(F)ccc4[nH]3)n(C)n2)cc1Cl` [Compound A-126, 3-chloro-N-[5-(5-fluoro-1H-benzimidazol-2-yl)-1-methyl-pyrazol-3-yl]-4-methoxy-benzamide]: less than 100 nM.
Regarding `COc1cc(F)c2[nH]c(-c3cc(NC(=O)c4ccc(OC)c(Cl)c4)n[nH]3)nc2c1` [Compound A-127, 3-chloro-N-[5-(7-fluoro-5-methoxy-1H-benzimidazol-2-yl)-1H-pyrazol-3-yl]-4-methoxy-benzamide], the IC50 was less than 100 nM.
`COC1CN(c2ccc(C(=O)Nc3cc(-c4nc5cc(F)ccc5[nH]4)n(C)n3)cn2)C1` [Compound A-128, N-[5-(5-fluoro-1H-benzimidazol-2-yl)-1-methyl-pyrazol-3-yl]-6-(3-methoxyazetidin-1-yl)pyridine-3-carboxamide] showed an IC50 of 300 to 1000 nM.
`COCCOc1ccc(C(=O)Nc2cc(-c3nc4ccccc4[nH]3)[nH]n2)cc1C#N` [Compound A-129, N-[5-(1H-benzimidazol-2-yl)-1H-pyrazol-3-yl]-3-cyano-4-(2-methoxyethoxy)benzamide]: the IC50 lay within 100 to 300 nM.
Turning to `O=C(Nc1cc(-c2nc3ccccc3[nH]2)[nH]n1)c1ccc(OCCO)c(F)c1` [Compound A-130, N-[5-(1H-benzimidazol-2-yl)-1H-pyrazol-3-yl]-3-fluoro-4-(2-hydroxyethoxy)benzamide], the IC50 lay within 300 to 1000 nM.
Take `COC1CN(c2ccc(C(=O)Nc3cc(-c4nc5cccc(F)c5[nH]4)[nH]n3)cn2)C1` [Compound A-131, N-[5-(7-fluoro-1H-benzimidazol-2-yl)-1H-pyrazol-3-yl]-6-(3-methoxy-azetidin-1-yl)pyridine-3-carboxamide]: the IC50 lay within 100 to 300 nM.
Compound `COC1CN(c2ccc(C(=O)Nc3cc(-c4nc5cc(F)ccc5[nH]4)[nH]n3)cn2)C1` [Compound A-132, N-[5-(5-fluoro-1H-benzimidazol-2-yl)-1H-pyrazol-3-yl]-6-(3-methoxy-azetidin-1-yl)pyridine-3-carboxamide] displayed an IC50 of less than 100 nM.
The same measure for `CN(C)C1CCN(c2ccc(C(=O)Nc3cc(-c4nc5cc(F)ccc5[nH]4)n(C)n3)cn2)CC1` [Compound A-133, 6-[4-(dimethylamino)-1-piperidyl]-N-[5-(5-fluoro-1H-benzimidazol-2-yl)-1-methyl-pyrazol-3-yl]pyridine-3-carboxamide]: 100 to 300 nM.
With `Cn1nc(NC(=O)c2ccc(N3CCC(O)CC3)nc2)cc1-c1nc2cccc(F)c2[nH]1` [Compound A-134], the IC50 lay within 100 to 300 nM.
Regarding `Cn1nc(NC(=O)c2ccc(N3CCOCC3)nc2)cc1-c1nc2cccc(F)c2[nH]1` [Compound A-135, N-[5-(4-fluoro-1H-benzimidazol-2-yl)-1-methyl-pyrazol-3-yl]-6-morpholino-pyridine-3-carboxamide], the half-inhibitory concentration (IC50) lay in the range of 100 to 300 nM.
`Cn1nc(NC(=O)c2ccc(N3CCC(CO)CC3)nc2)cc1-c1nc2cccc(F)c2[nH]1` [Compound A-136, N-[5-(4-fluoro-1H-benzimidazol-2-yl)-1-methyl-pyrazol-3-yl]-6-[4-(hydroxymethyl)-1-piperidyl]pyridine-3-carboxamide] yielded an IC50 of 100 to 300 nM.
`COC1CN(c2ccc(C(=O)Nc3cc(-c4nc5cccc(F)c5[nH]4)n(C)n3)cn2)C1` [Compound A-137, N-[5-(4-fluoro-1H-benzimidazol-2-yl)-1-methyl-pyrazol-3-yl]-6-(3-methoxyazetidin-1-yl)pyridine-3-carboxamide] yielded an IC50 of 300 to 1000 nM.
`O=C(NCc1ccccc1)Nc1cc(-c2nc3ccccc3[nH]2)[nH]n1` [Compound A-138, 1-[5-(1H-benzimidazol-2-yl)-1H-pyrazol-3-yl]-3-benzyl-urea] had an IC50 greater than 1000 nM.
Turning to `CN(C)C1CCN(c2ccc(C(=O)Nc3cc(-c4nc5cccc(F)c5[nH]4)n(C)n3)cn2)CC1` [Compound A-139, 6-[4-(dimethylamino)-1-piperidyl]-N-[5-(4-fluoro-1H-benzimidazol-2-yl)-1-methyl-pyrazol-3-yl]pyridine-3-carboxamide], the IC50 was 100 to 300 nM.
The same measure for `O=C(Nc1ccccc1)Nc1cc(-c2nc3ccccc3[nH]2)[nH]n1` [Compound A-140, 1-[5-(1H-benzimidazol-2-yl)-1H-pyrazol-3-yl]-3-phenyl-urea]: greater than 1000 nM; for `O=C(Nc1cc(-c2nc3cc(F)ccc3[nH]2)[nH]n1)c1ccc(OCCO)c(Cl)c1` [Compound A-141, 3-chloro-N-[5-(5-fluoro-1H-benzimidazol-2-yl)-1H-pyrazol-3-yl]-4-(2-hydroxyethoxy)benzamide]: 100 to 300 nM; for `COCCN1CCN(c2ccc(C(=O)Nc3cc(-c4nc5ccccc5[nH]4)[nH]n3)cn2)CC1` [Compound A-142, N-[5-(1H-benzimidazol-2-yl)-1H-pyrazol-3-yl]-6-[4-(2-methoxyethyl)-piperazin-1-yl]pyridine-3-carboxamide]: less than 100 nM.
In turn, `O=C(Nc1cc(-c2nc3ccccc3[nH]2)[nH]n1)c1ccc(N2CCN(CCO)CC2)nc1` [Compound A-143, N-[5-(1H-benzimidazol-2-yl)-1H-pyrazol-3-yl]-6-[4-(2-hydroxyethyl)-piperazin-1-yl]pyridine-3-carboxamide] had an IC50 of 100 to 300 nM.
The same measure for `N#Cc1cc(C(=O)Nc2cc(-c3nc4ccccc4[nH]3)[nH]n2)ccc1OCCO` [Compound A-144, N-[5-(1H-benzimidazol-2-yl)-1H-pyrazol-3-yl]-3-cyano-4-(2-hydroxy-ethoxy)benzamide]: greater than 1000 nM; for `CCOC(=O)[C@@H]1CCCN1c1ccc(C(=O)Nc2cc(-c3nc4cc(F)ccc4[nH]3)n(C)n2)cn1` [Compound A-145, ethyl (25)-1-[5-[[5-(5-fluoro-1H-benzimidazol-2-yl)-1-methyl-pyrazol-3-yl]carbamoyl]-2-pyridyl]pyrrolidine-2-carboxylate]: greater than 1000 nM; for `CCOC(=O)[C@H]1CCCN1c1ccc(C(=O)Nc2cc(-c3nc4cc(F)ccc4[nH]3)n(C)n2)cn1` [Compound A-146, ethyl (2R)-1-[5-[[5-(5-fluoro-1H-benzimidazol-2-yl)-1-methyl-pyrazol-3-yl]carbamoyl]-2-pyridyl]pyrrolidine-2-carboxylate]: greater than 1000 nM.
In turn, `CCOC(=O)[C@@H]1CCCN1c1ccc(C(=O)Nc2cc(-c3nc4cccc(F)c4[nH]3)n(C)n2)cn1` [Compound A-147, ethyl (2S)-1-[5-[[5-(4-fluoro-1H-benzimidazol-2-yl)-1-methyl-pyrazol-3-yl]carbamoyl]-2-pyridyl]pyrrolidine-2-carboxylate] had an IC50 greater than 1000 nM.
